Drawing on patent US20170253601A1, “Substituted Pyrrolidine Compounds” (EPIZYME, INC., priority 2014, published 2017), this text covers IC50 for 26 compounds.

The assay has as its target T1, human SMYD3 (Homo sapiens, UniProt Q9H7B4).
T1 construct: Expressed full-length human His-tagged SMYD3 protein was purified from cell paste; His6 (cleaved yes); TEV and SUMO cleavage sites (cleaved yes); made in house; host or cells: E. coli BL21 codonplus RIL
T1 sequence (Q9H7B4 1-428): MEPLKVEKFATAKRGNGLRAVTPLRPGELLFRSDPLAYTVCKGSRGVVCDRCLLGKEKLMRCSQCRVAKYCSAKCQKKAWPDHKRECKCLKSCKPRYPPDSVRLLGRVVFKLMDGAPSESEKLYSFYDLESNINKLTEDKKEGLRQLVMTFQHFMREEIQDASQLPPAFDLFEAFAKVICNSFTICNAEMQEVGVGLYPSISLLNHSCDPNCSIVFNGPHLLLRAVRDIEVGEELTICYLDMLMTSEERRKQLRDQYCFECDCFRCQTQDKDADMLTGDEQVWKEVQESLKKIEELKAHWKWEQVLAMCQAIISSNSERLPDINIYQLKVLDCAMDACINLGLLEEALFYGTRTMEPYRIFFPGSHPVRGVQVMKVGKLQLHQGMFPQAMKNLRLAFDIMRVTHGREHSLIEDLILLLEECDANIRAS
The experiment in a line: SMYD3 Biochemical Assay (3H-SAM, MEKK2 protein substrate, SPA). Particulars: Table 1; average of n = 1 to n = 50; read-out: SMYD3 Biochem IC50. An excerpt: S-adenosylmethionine (SAM), S-adenosylhomocysteine (SAH), Tris, Tween20, dimethylsulfoxide (DMSO), bovine skin gelatin (BSG), and Tris(2-carboxyethyl)phosphine hydrochloride solution (TCEP) were purchased from Sigma-Aldrich at the highest level of purity possible. ^3H-SAM was purchase from American Radiolabeled Chemicals with a specific activity of 80 Ci/mmol. 384-well opaque white OptiPlates and SPA beads (Perkin Elmer, catalog # RPNQ0013) were purchased from PerkinElmer.
N-terminally GST-tagged MEKK2 (MAP3K2) protein corresponding to reference sequence AAF63496.3 was purchased from Life Technologies (catalog # PV4010). This protein was expressed in High Five insect cells and purified to >85% purity. Protein identity was confirmed by MS/MS analysis after proteolytic digestion. The protein sequence used was:
Full-length human SMYD3 isoform 1 (BAB86333) was inserted into a modified pET21b plasmid containing a His6 tag and TEV and SUMO cleavage sites. Because two common variants of SMYD3 exist in the population, site directed mutagenesis was subsequently performed to change amino acid 13 from an asparagine to a lysine, resulting in plasmid pEPZ533. A lysine at position 13 conforms to the more commonly occurring sequence (NP_001161212).
E. coli (BL21 codonplus RIL strain, Stratagene) were transformed with plasmid pEPZ553 by mixing competent cells and plasmid DNA and incubating on ice for 30 minutes followed by heat shock at 42° C. for 1 minute and cooling on ice for 2 minutes. Transformed cells were grown and selected on LB agar with 100 μg/mL ampicillin and 17 μg/mL chloramphenicol at 37° C. overnight. A single clone was used to inoculate 200 mL of LB medium with 100 μg/mL ampicillin and 17 μg/mL chloramphenicol and incubated at 37° C. on an orbital shaker at 180 rpm. Once in log growth, the culture was diluted 1:100 into 2 L of LB medium and grown until OD600 was about 0.3 after which the culture was incubated at 15° C. and 160 rpm. Once OD600 reached about 0.4, IPTG was added to a final concentration of 0.1 mM and the cells were grown overnight at 15° C. and 160 rpm. Cells were harvested by centrifugation at 8000 rpm, for 4 minutes at 4° C. and stored at −80° C. for purification.
Expressed full-length human His-tagged SMYD3 protein was purified from cell paste by Nickel affinity chromatography after equilibration of the resin with Buffer A (25 mM Tris, 200 mM NaCl, 5% glycerol, 5 mM β-mercaptoethanol, pH7.8). The column was washed with Buffer B (Buffer A plus 20 mM imidazole) and His-tagged SMYD3 was eluted with Buffer C (Buffer A plus 300 mM imidazole). The His tag, TEV and SUMO cleavage sites were removed generating native SMYD3 by addition of ULP1 protein at a ratio of 1:200 (ULP1:SMYD3). Imidazole was removed by dialysis overnight in Buffer A. The dialyzed solution was applied to a second Nickel column and the native SMYD3 protein was collected from the column flow-through. The flow-through was dialyzed in Buffer D (25 mM Tris, 5% glycerol, 5 mM β-mercaptoethanol, 50 mM NaCl, pH7.8) and ULP1 was removed using a Q sepharose fast flow column. SMYD3 was eluted in Buffer A and further purified using an S200 size-exclusion column equilibrated with Buffer A. SMYD3 was concentrated to 2 mg/mL with a final purity of 89%.
The assays were all performed in a buffer consisting of 25 mM Tris-Cl pH 8.0, 1 mM TCEP, 0.005% BSG, and 0.005% Tween 20, prepared on the day of use. Compounds in 100% DMSO (1 ul) were spotted into a 384-well white opaque OptiPlate using a Bravo automated liquid handling platform outfitted with a 384-channel head (Agilent Technologies). DMSO (1 ul) was added to Columns 11, 12, 23, 24, rows A-H for the maximum signal control and 1 ul of SAH, a known product and inhibitor of SMYD3, was added to columns 11, 12, 23, 24, rows I-P for the minimum signal control. A cocktail (40 ul) containing the SMYD3 enzyme was added by Multidrop Combi (Thermo-Fisher). […]
As to `CC(C)N1CCC(NC(=O)c2cc(C3CC3)on2)C1c1ccc(F)c(F)c1` (centres unmarked) [compound 12, 5-cyclopropyl-N-(2-(3,4-difluorophenyl)-1-isopropylpyrrolidin-3-yl)isoxazole-3-carboxamide], the half-maximal inhibitory concentration (IC50) was 58.6 µM.

Turning to `CN1C(=O)CC(NC(=O)c2cc(C3CC3)on2)C1c1ccc(F)cc1` (centres unmarked) [compound 14, 5-cyclopropyl-N-(2-(4-fluorophenyl)-1-methyl-5-oxopyrrolidin-3-yl)isoxazole-3-carboxamide], the IC50 was 58.5 µM.

For `C[C@@H]1C[C@H](NC(=O)c2cc(C3CC3)on2)C(=O)N1c1cnn(C)c1` (racemic) [compound 19, (±)-cis-5-cyclopropyl-N-(5-methyl-1-(1-methyl-1H-pyrazol-4-yl)-2-oxopyrrolidin-3-yl)isoxazole-3-carboxamide], the IC50 is above 200 µM.

Consider `O=C(NC1CCN(c2ccccc2)C1=O)c1cc(C2CC2)on1` (centres unmarked) [compound 28, 5-cyclopropyl-N-(2-oxo-1-phenyl-pyrrolidin-3-yl)isoxazole-3-carboxamide], for which the IC50 was 94.2 µM.

As for `Cc1cc(N2CCC(NC(=O)c3cc(C4CC4)on3)C2=O)n(C)n1` (centres unmarked) [compound 6, 5-cyclopropyl-N-(1-(1,3-dimethyl-1H-pyrazol-5-yl)-2-oxopyrrolidin-3-yl)isoxazole-3-carboxamide], the half-maximal inhibitory concentration (IC50) is above 200 µM.

Take `O=C(NC1CCN(C2CC2)C1c1ccc(F)c(F)c1)c1cc(C2CC2)on1` (centres unmarked) [compound 8, 5-cyclopropyl-N-(1-cyclopropyl-2-(3,4-difluoro-phenyl)pyrrolidin-3-yl)isoxazole-3-carboxamide]: the IC50 amounted to 12.4 µM.

Take `CN1CCC(NC(=O)c2cc(C3CC3)on2)C1c1ccc(Cl)c(F)c1` (centres unmarked) [compound 7, N-(2-(4-chloro-3-fluorophenyl)-1-methylpyrrolidin-3-yl)-5-cyclo-propylisoxazole-3-carboxamide]: the IC50 is 51.5 µM.

`CC1CC(NC(=O)c2cc(C3CC3)on2)CN1Cc1ccccc1` (centres unmarked) [compound 21, N-(1-benzyl-5-methylpyrrolidin-3-yl)-5-cyclopropyl-isoxazole-3-carboxamide]: the concentration for half-maximal inhibition (IC50) turned out to be 54.1 µM.

As to `N[C@H]1CC[C@H](C(=O)N2CC[C@@H](NC(=O)c3cc(C4CC4)on3)C2)CC1` [compound 31, N-((R)-1-((1r,4r)-4-aminocyclohexane-1-carbonyl)pyrrolidin-3-yl)-5-cyclopropyl-isoxazole-3-carboxamide], the half-maximal inhibitory concentration (IC50) is above 10 µM.

With `Cn1ccc(N2CCC(NC(=O)c3cc(C4CC4)on3)C2=O)n1` (centres unmarked) [compound 15, 5-cyclopropyl-N-(1-(1-methyl-1H-pyrazol-3-yl)-2-oxopyrrolidin-3-yl)isoxazole-3-carboxamide], the concentration for half-maximal inhibition (IC50) turned out to be 158 µM.

With `CC1CC(NC(=O)c2cc(C3CC3)on2)CN1C1CC1` (centres unmarked) [compound 22, 5-cyclopropyl-N-(1-cyclopropyl-5-methylpyrrolidin-3-yl)isoxazole-3-carboxamide], the IC50 came out at 47.1 µM.

For the compound `O=C(NC1CC(=O)N(c2ccccc2)C1)c1cc(C2CC2)on1` (centres unmarked) [compound 25, 5-cyclopropyl-N-(5-oxo-1-phenylpyrrolidin-3-yl)isoxazole-3-carboxamide], the IC50 was 98.8 µM.

As for `O=C(N[C@H]1CCNC1)c1cc(C2CC2)on1` [compound 3, (S)-5-cyclopropyl-N-(pyrrolidin-3-yl)isoxazole-3-carboxamide], the IC50 was 80.3 µM.

In the case of `CN1C[C@H](NC(=O)c2cc(C3CC3)on2)[C@H](c2ccccc2)C1` (racemic) [compound 17, (±)-cis-5-cyclopropyl-N-((1-methyl-4-phenylpyrrolidin-3-yl)isoxazole-3-carboxamide], the IC50 worked out at 56.2 µM.

For `O=C(NC1CCN(Cc2ccccc2)C1=O)c1cc(C2CC2)on1` (centres unmarked) [compound 27, N-(1-benzyl-2-oxopyrrolidin-3-yl)-5-cyclopropylisoxazole-3-carboxamide], the IC50 is above 200 µM.

Turning to `CC(c1ccccc1)N1CCC(NC(=O)c2cc(C3CC3)on2)C1` (centres unmarked) [compound 24, 5-cyclopropyl-N-(1-(1-phenylethyl)pyrrolidin-3-yl)isoxazole-3-carboxamide], the concentration for half-maximal inhibition (IC50) worked out at 38.4 µM.

For the compound `CC1CC(NC(=O)c2cc(C3CC3)on2)CN1c1ccccc1` (centres unmarked) [compound 10, 5-cyclopropyl-N-(5-methyl-1-phenylpyrrolidin-3-yl)isoxazole-3-carboxamide], the 50% inhibitory concentration (IC50) came out at 53.5 µM.

Regarding `CC1CN(C2CC2)CC1NC(=O)c1cc(C2CC2)on1` (centres unmarked) [compound 23, 5-cyclopropyl-N-(1-cyclopropyl-4-methylpyrrolidin-3-yl)isoxazole-3-carboxamide], the IC50 was found to be 48.5 µM.

In the case of `CC1CC(NC(=O)c2cc(C3CC3)on2)C(=O)N1c1ccccc1` (centres unmarked) [compound 11, 5-cyclopropyl-N-(5-methyl-2-oxo-1-phenylpyrrolidin-3-yl)isoxazole-3-carboxamide], the 50% inhibitory concentration (IC50) was 78.1 µM.

Consider `CN1C[C@H](NC(=O)c2cc(C3CC3)on2)[C@@H](c2ccccc2)C1` (racemic) [compound 18, (±)-trans-5-cyclopropyl-N-(1-methyl-4-phenylpyrrolidin-3-yl)isoxazole-3-carboxamide], for which the IC50 stood at 50.4 µM.

On to `CN1CCC(NC(=O)c2cc(C3CC3)on2)C1c1ccc(F)c(F)c1` (centres unmarked) [compound 9, 5-cyclopropyl-N-(2-(3,4-difluorophenyl)-1-methylpyrrolidin-3-yl)isoxazole-3-carboxamide], for which the concentration for half-maximal inhibition (IC50) worked out at 67.2 µM.

Regarding `NCCCS(=O)(=O)N1CC[C@@H](NC(=O)c2cc(C3CC3)on2)C1` [compound 34, (R)-N-(1-((3-amino-propyl)sulfonyl)pyrrolidin-3-yl)-5-cyclopropyl-isoxazole-3-carboxamide], the concentration for half-maximal inhibition (IC50) is 5.8 µM.

In the case of `CN1CCC(NC(=O)c2cc(C3CC3)on2)C1c1ccc(F)cc1` (centres unmarked) [compound 13, 5-cyclopropyl-N-(2-(4-fluorophenyl)-1-methylpyrrolidin-3-yl)isoxazole-3-carboxamide], the IC50 was found to be 51.9 µM.

As to `C[C@H]1C[C@H](NC(=O)c2cc(C3CC3)on2)C(=O)N1c1cnn(C)c1` (racemic) [compound 20, (±)-trans 5-cyclopropyl-N-(5-methyl-1-(1-methyl-1H-pyrazol-4-yl)-2-oxopyrrolidin-3-yl)isoxazole-3-carboxamide], the IC50 is above 200 µM.

With `CN1CCC(NC(=O)c2cc(C3CC3)on2)C1` (centres unmarked) [compound 29, 5-cyclopropyl-N-(1-methylpyrrolidin-3-yl)isoxazole-3-carboxamide], the half-inhibitory concentration (IC50) came to 84 µM.

Regarding `O=C(N[C@@H]1CCNC1)c1cc(C2CC2)on1` [compound 4, (R)-5-cyclopropyl-N-(pyrrolidin-3-yl)isoxazole-3-carboxamide], the half-maximal inhibitory concentration (IC50) was found to be 83.7 µM.
